Test results published in patent publication US9517989B2, “2-cycloalkyl resorcinol cannabinergic ligands” (priority 2012, dated 2016).
Like-named read-outs stand apart in the source and are kept apart here.

Key:
CB1 [1] = target: T1, CB1 (Rattus norvegicus, UniProt P20272); assay: cyclic adenosine monophosphate (cAMP) assay at CB1; assay type: cell-based; settings: for Emax: read-out: % Efficacy; for EC50: read-out: Functional Potency (EC50)
Method: (§1) Functional characterization of some of the disclosed compounds was performed by using the cyclic adenosine monophosphate (cAMP) assay. The functional potency of the compound is represented by the EC50 value. The lower the EC50 value, the higher the functional potency. A detailed description of the cyclic adenosine monophosphate (cAMP) assay is given in Nikas et al. J. Med. Chem. (2010) 6996.

CB2 receptor = CB2 receptor (UniProt P47936); assay: CB2 receptor binding affinity (Ki); settings: read-out: CB2 receptor Ki
Method: Some disclosed compounds were tested for CB1 and CB2 receptor binding affinity (Tables 1, 2, 3, 4, 5, 6). As used herein “binding affinity” is represented by the Ki value. The Ki value is the affinity constant and describes the affinity of the compound for the receptor. The lower the Ki value, the higher the affinity of the compound for the receptor. A detailed description of the methods used to test “binding affinity” of compounds is given in Makriyannis, et al., US 2007, 0135388 and in Papahatjis, et al. J. Med. Chem. (2007) 4048, the content of each of which is hereby incorporated by reference.

CB2 = CB2 (Homo sapiens, UniProt P34972); assay: cyclic adenosine monophosphate (cAMP) assay at CB2; assay type: cell-based; settings: for Emax: read-out: % Efficacy; for EC50: read-out: Functional Potency (EC50)
Sequence of CB2 (P34972 whole entry, species assumed): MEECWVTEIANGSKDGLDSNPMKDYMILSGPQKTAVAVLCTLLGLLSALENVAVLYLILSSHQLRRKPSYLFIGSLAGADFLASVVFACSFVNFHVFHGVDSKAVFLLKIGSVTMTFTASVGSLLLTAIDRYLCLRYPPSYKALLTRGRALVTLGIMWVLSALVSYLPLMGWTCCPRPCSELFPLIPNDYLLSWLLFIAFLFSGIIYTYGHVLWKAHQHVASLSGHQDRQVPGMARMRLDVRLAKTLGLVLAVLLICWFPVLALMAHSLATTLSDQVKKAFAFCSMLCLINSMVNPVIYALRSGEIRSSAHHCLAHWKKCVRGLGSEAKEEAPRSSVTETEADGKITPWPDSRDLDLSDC
Method: as §1

CB1 [2] = target: T1, CB1; assay: CB1 receptor binding affinity (Ki)
Method: Some disclosed compounds were tested for CB1 and CB2 receptor binding affinity (Tables 1, 2, 3, 4, 5, 6). As used herein “binding affinity” is represented by the Ki value. The Ki value is the affinity constant and describes the affinity of the compound for the receptor. […] A detailed description of the methods used to test “binding affinity” of compounds is given in Makriyannis, et al., US 2007, 0135388 and in Papahatjis, et al. J. Med. Chem. (2007) 4048, the content of each of which is hereby incorporated by reference.

C57BL/6 J mice = assay: Hypothermia assay (rectal temperature); assay type: in vivo; settings: dose of 3 mg/kg, FIG. 2
Method: (§2) Some of the disclosed compounds were tested in vivo using two well defined rodent assays for cannabinergic activity, the analgesia and the hypothermia assays. The analgesia assay (tail immersion test) determines the ability of the test compound to activate cannabinergic signaling, through modulation of cannabinoid receptors, and thereby reduce nociceptive pain. The hypothermia test determines the ability of a test compound to act as a central CB1 agonist and decrease the body temperature. […] The details of both assays are described below.
C57BL/6 J mice (Charles River Breeding Laboratories, Wilmington, Mass., USA) weighing 30 to 35 g were group housed five to a cage, in a temperature-controlled (20° C.) animal facility. Mice were habituated to the animal facility for at least 1 week prior to experiments with a 12-h light/dark cycle (lights are on at 7:00 AM). Mice were given free access to food and water. Experimentally naïve mice were used for each dose condition, and the mice were tested during the light phase.
Rectal temperature was measured in mice using a rectal probe of a digital laboratory thermometer, RET-3-ISO, type T thermocouple (Physitemp Instruments Inc, Clifton, N.J.). The lubricated probe was inserted approximately 2.0 cm into the rectum for approximately 30 sec, prior to each recording. […]

C57BL6/J mice = assay: Analgesia assay (tail immersion / tail withdrawal test); assay type: in vivo
Method: as §2
C57BL6/J mice (Jackson Laboratories, Bar Harbor Me.) were single housed at least 1 h before start of experiment. Food and water are removed immediately before the first injection.
Route of administration=i.p. Volume=1 mL/100 g body weight.
Tail withdrawal test: 52° C. water bath (use bags). • a. Bag is made of stapled surgery sheets to form a small pocket the size of a mouse. • b. […] The tip of the mouse's tail is dipped into the warm water, with 1 cm submerged. • d. […] B. Hypothermia Assay

T1 sequence (P20272 whole entry): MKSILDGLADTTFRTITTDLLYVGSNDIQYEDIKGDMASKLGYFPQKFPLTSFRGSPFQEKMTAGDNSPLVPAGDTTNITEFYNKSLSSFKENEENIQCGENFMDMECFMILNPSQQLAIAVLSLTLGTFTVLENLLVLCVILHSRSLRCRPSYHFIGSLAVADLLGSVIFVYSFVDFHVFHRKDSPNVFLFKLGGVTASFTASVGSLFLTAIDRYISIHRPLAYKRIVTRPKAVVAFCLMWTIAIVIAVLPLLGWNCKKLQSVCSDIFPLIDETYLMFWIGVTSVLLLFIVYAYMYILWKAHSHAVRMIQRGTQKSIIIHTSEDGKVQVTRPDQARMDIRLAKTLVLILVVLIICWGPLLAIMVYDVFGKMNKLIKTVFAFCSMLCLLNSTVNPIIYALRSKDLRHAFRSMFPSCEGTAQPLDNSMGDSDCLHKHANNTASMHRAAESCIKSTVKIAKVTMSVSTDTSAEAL

| Molecule | Functional Activity (CB1 [1]) | Emax (CB1 [1]) [%] | EC50 (CB1 [1]) [nM] | Ki (CB2 receptor) [nM] | Functional Activity (CB2) | Emax (CB2) [%] | EC50 (CB2) [nM] | Ki (CB1 [2]) [nM] | centrally mediated hypothermia (C57BL/6 J mice) | antinociception (analgesia) (C57BL6/J mice; dose of 3 mg/Kg, FIG. 1) | % Efficacy (CB1 [1]) [%] | % Efficacy (CB2) [%] | Ki (CB1 [2]; read-out: CB1 receptor Ki) [nM] | potency in the analgesia assay relative to compound 41 (times less potent) (C57BL6/J mice; same test as compound 41) |
| --- | --- | --- | --- | --- | --- | --- | --- | --- | --- | --- | --- | --- | --- | --- |
| C=C(C)[C@H]1CCC(CO)=C[C@@H]1c1c(O)cc(C(C)(C)CCCCN2CCOCC2)cc1O [Compound 71, 2-[(1S,6S)-3-(Hydroxymethyl)-6-(1-methylethenyl)-2-cyclohexen-1-yl]-5-(6-morpholino-2-methylhexane-2-yl)resorcinol] | Agonist at CB1 | 88 | 1.4 | 3 | Partial agonist at CB2 | 42 | 0.4 | 6 | does not show significant hypothermia |  |  |  |  |  |
| C=C(C)[C@H]1CCC(CO)=C[C@@H]1c1c(O)cc(C2(CCCCCC#N)CCC2)cc1O [Compound 34, 2-[(1S,6S)-3-(Hydroxymethyl)-6-(1-methylethenyl)-2-cyclohexen-1-yl]-5-[(5-cyanopentyl)cyclobutyl]resorcinol] | Agonist at CB1 | 83 | 3.2 | 5.5 |  |  |  | 20 |  |  |  |  |  |  |
| CC1=C[C@H](c2c(O)cc(C3(CCCCCC#N)CCCC3)cc2O)[C@@H]2C[C@H]1C2(C)C [Compound 41, (+)-2-[(1R,4S,5S)-2,6,6-trimethylbicylco[3.1.1]hept-2-en-4-yl]-5-[(5-cyanopentyl)cyclopentyl]resorcinol] |  |  |  | 0.8 |  |  |  | 2.6 |  | maximum possible effect |  |  |  |  |
| 2-[(1S,6S)-3-(Hydroxymethyl)-6-(1-methylethenyl)-2-cyclohexen-1-yl]-5-(6-morpholino-2-methylhexane-2-yl)-1,3-dimethoxy-benzene [Compound 74] | Agonist at CB1 |  | 50.4 | 16 | Partial agonist at CB2 |  | 6.7 |  |  |  | 51 | 28 | 70 |  |
| (−)-Δ^9-tetrahydrocannabinol [(−)-Δ^9-THC, reference compound] |  |  |  |  |  |  |  |  |  |  |  |  |  | approximately 10 times |
| C=C(C)[C@H]1CCC(CO)=C[C@@H]1c1c(O)cc(C2(CCCCCC)CC2)cc1O [Compound 4.3, 2-[(1S,6S)-3-(Hydroxymethyl)-6-(1-methylethenyl)-2-cyclohexen-1-yl]-5-(1-hexyl-cyclopropyl)resorcinol] | Agonist at CB1 | 58 | 1.6 | 14 | Partial agonist at CB2 | 35 | 12 | 16 |  |  |  |  |  |  |
| C=C(C)[C@H]1CCC(CO)=C[C@@H]1c1c(O)cc(C2(CCCCCC)CCCC2)cc1O [Compound 4.4, 2-[(1S,6S)-3-(Hydroxymethyl)-6-(1-methylethenyl)-2-cyclohexen-1-yl]-5-(1-hexyl-cyclopentyl)resorcinol] | Agonist at CB1 | 81 | 17 | 16 |  |  |  | 78 |  |  |  |  |  |  |
| C=C(C)[C@H]1CCC(CO)=C[C@@H]1c1c(O)cc(C2(CCCCCC)SCCS2)cc1O [Compound 4.6, 2-[(1S,6S)-3-(Hydroxymethyl)-6-(1-methylethenyl)-2-cyclohexen-1-yl]-5-(2-hexyl-1,3-dithiolane-2-yl)resorcinol] | Agonist at CB1 | 84 | 267 | 28 |  |  |  | 71 |  |  |  |  |  |  |
| CCCCCCC1(c2cc(O)c([C@H]3C=C(C)[C@H]4C[C@@H]3C4(C)C)c(O)c2)SCCS1 [Compound 40.6, (+)-2-[(1R,4S,5S)-2,6,6-trimethylbicylco[3.1.1]hept-2-en-4-yl]-5-(2-hexyl-1,3-dithiolane-2-yl)resorcinol] | Partial agonist at CB1 | 38 | 21 | 7.9 | Partial agonist at CB2 | 38 | 8.7 | 19.2 |  |  |  |  |  |  |
